In patent US20230066474A1, “LYSOSOME-TARGETING ANTIBODY-DRUG CONJUGATE AND USE THEREOF” (Sun Yat-Sen University, priority 2019, published 2023):
Where a SMILES comes first, the peptide text is derived from it. [ ]: non-standard residue; d: D form. Dolaproine = CO[C@@H]([C@@H]1CCCN1)[C@@H](C)C(=O)O; Dil = CC[C@H](C)[C@H](NC)[C@@H](CC(=O)O)OC; NMeV = CN[C@H](C(=O)O)C(C)C

Tested on: A431 cells
Test: 2D tumor cell model cytotoxicity, Cell Counting Kit-8 (CCK-8)
Assay type: cell-based, human
Settings: treated 96 h, CCK-8 viability, mean±SEM (n=3)
Method: 2D tumor cell model was used, where ADCs of varying concentrations were added to a 96-well plate seeded with A431 cells and treated for 96 h. The cell viability was examined using Cell Counting Kit-8 (CCK-8).

Q: With CC[C@H](C)[C@@H]([C@@H](CC(=O)N1CCC[C@H]1[C@H](OC)[C@@H](C)C(=O)N[C@@H](Cc1ccccc1)C(=O)O)OC)N(C)C(=O)[C@@H](NC(=O)[C@@H](NC)C(C)C)C(C)C [MMAF, monomethylaurethatin F] (H-[NMeV]V[Dil][Dolaproine]F-OH) as the molecule, how does the EC50 read?
A: 955 ± 289 nM
